{"source": "patent US10444149B2", "about": "“Fluorescent compounds as sensing agents” (OHIO NORTHERN UNIVERSITY, priority 2016, dated 2019)", "key": {"[1]": {"assay": "Detection of lead in methanol extract of soil", "description": "A lead-free soil sample was collected, placed into a Buchner funnel, and soaked with 1 mL of 0.15 M Pb(NO3)2 in water to introduce lead to the soil. As a control sample, the same was performed with the lead-free soil without exposure to Pb^2+. After soaking, the soil samples were washed with 50 mL of methanol. A sample from each filtrate was diluted in 3:1 tetrahydrofuran:methanol and exposed to Compound 25. […] This example illustrates that the substituted chromones described herein may be useful in detecting ions from soil extracts."}, "[2]": {"assay": "Visual detection limit, blue to green fluorescence change", "conditions": "5 μM compound in 3:1 tetrahydrofuran:methanol; Pb(NO3)2 in deionized water", "description": "The detection limit Pb(NO3)2 (i.e., Pb^2+) for Compound 25 in 3:1 tetrahydrofuran:methanol was tested by exposing samples of 5 μM Compound 25 to ever decreasing concentrations of Pb(NO3)2 dissolved in deionized water.\nA 40 mM solution of Pb(NO3)2 (i.e., Pb^2+) was prepared in tap water and then diluted with 3:1 tetrahydrofuran:methanol to a lead concentration of 133 μM. The resultant sample was added to solutions of 5 μM sample of Compound 25 in 3:1 tetrahydrofuran:methanol. […] This example illustrates that the lead detection can be performed using tap water, which includes a variety of other ions."}, "[3]": {"assay": "Extraction of lead from water with octanol and triethylamine", "conditions": "3 mM Pb(NO3)2, 1 equivalent triethylamine", "description": "A 3 mM Pb(NO3)2 sample was prepared in deionized water and Compound 25 was added to give a green fluorescence. The lead was then extracted from the water using either 1-octanol or 2-octanol each with 1 equivalent (relative to Compound 25) of triethylamine, which turned the octanol portion green. After washing thrice with 1-octanol, 99% of the Pb^2+ had been extracted from the water. After washing twice with 2-octanol, 83% of the Pb^2+ had been extracted from the water."}, "[4]": {"assay": "Emission spectrum on exposure to varying amounts of lead nitrate", "conditions": "5 μM compound; 3:1 or 2:1 tetrahydrofuran:methanol; excitation 370 nm", "description": "Compound 20 was dissolved in methanol and then exposed to varying amounts of […] (i.e., Pb^2+). […] Therefore, a kit, method, system, or the like may utilize a specific solvent system for detection of lead or other Ions. Alternatively, and especially where the metal ion concentration is unknown, a kit, method, system, or the like may utilize a series of solvent systems in parallel to determine a concentration of metal ions.\nA 5 μM sample of Compound 25 in 3:1 tetrahydrofuran:methanol or 2:1 tetrahydrofuran:methanol was prepared and exposed to varying amounts of Pb(NO3)2 (i.e., Pb^2+) dissolved in deionized water."}, "[5]": {"assay": "Visual ion selectivity test, excited at 365 nm", "conditions": "3:1 tetrahydrofuran:methanol", "description": "Compound 25 was dissolved in 3:1 tetrahydrofuran:methanol and then exposed to varying amounts of Zn/SO4 (i.e., Zn^2+), (NH4)2Fe(SO4)2.6H2O (i.e., Fe^2+), Fe2O3 (i.e., Fe^3+), CuSO4 (i.e., Cu^2+), or Pb(NO3)2 (i.e., Pb^2+) each in deionized water. Upon visual inspection when excited at 365 nm, the sample exposed to Pb^2+ turned green while all other samples remained blue."}, "[6]": {"assay": "Peak absorption wavelength, peak emission wavelength and fluorescent quantum yield", "type": "physicochemical", "conditions": "solvent dichloromethane", "source_text": "Table 2 provides a peak absorption wavelength (λabs maximum), peak emission wavelength (λem maximum), a fluorescent quantum yield (ΦF), and a synthesis yield for the various compounds. The synthesis yield is based on the synthetic pathway illustrated in FIG. 1."}}, "note": "Marks after values point to notes of the source that are not given here.", "data": [{"smiles": "COC(=O)C(C)(C)C1Oc2ccc(OC)cc2C(=O)/C1=C\\NS(=O)(=O)c1ccc(OC)cc1", "note": "(stereo not shown) [Compound 25, (Z)methyl-2-(6-methoxy-3-(((4-methoxyphenyl)sulfonamido)methy-lene)-4-oxochroman-2-yl)-2-methylpropanoate]", "values": [{"measurement": "color change with soil extract", "setting": "[1]; extract from soil exposed to Pb^2+, diluted in 3:1 tetrahydrofuran:methanol", "result": "color change from blue to green"}, {"measurement": "color change with soil extract", "setting": "[1]; extract from soil not exposed to Pb^2+, same dilution", "result": "no color change"}, {"measurement": "speed of the color change", "setting": "[2]", "result": "almost instantaneous"}, {"measurement": "Pb^2+ extracted from the water", "setting": "[3]; washing thrice with 1-octanol", "result": 99, "unit": "%"}, {"measurement": "Pb^2+ extracted from the water", "setting": "[3]; washing twice with 2-octanol", "result": 83, "unit": "%"}, {"measurement": "change of peak emission in the presence of Pb^2+", "setting": "[4]", "result": "red-shift and intensity decrease"}, {"measurement": "visual change of fluorescence colour", "setting": "[4]", "result": "blue to green"}, {"measurement": "fluorescence colour of sample exposed to Cu^2+", "setting": "[5]", "result": "remained blue"}, {"measurement": "fluorescence colour of sample exposed to Fe^2+", "setting": "[5]", "result": "remained blue"}, {"measurement": "fluorescence colour of sample exposed to Fe^3+", "setting": "[5]", "result": "remained blue"}, {"measurement": "fluorescence colour of sample exposed to Zn^2+", "setting": "[5]", "result": "remained blue"}, {"measurement": "selectivity among heavy metal ions", "setting": "[5]; Zn^2+, Fe^2+, Fe^3+, Cu^2+, Pb^2+ compared", "result": "selectivity for Pb^2+ ions over other heavy metal ions"}, {"measurement": "fluorescence colour of sample exposed to Pb^2+", "setting": "[5]; excited at 365 nm", "result": "turned green"}, {"measurement": "ΦF", "setting": "[6]", "result": "69* %"}, {"measurement": "λabs maximum", "setting": "[6]", "result": 392, "unit": "nm"}, {"measurement": "λem maximum", "setting": "[6]", "result": 527, "unit": "nm"}]}]}
